US10201610B2, “Interference peptides and use thereof” (The University of Western Australia, priority 2014, dated 2019)
Like-named read-outs stand apart in the source and are kept apart here. Ends that are not written are not given here.

Columns and labels:
[1] = tested on: SUM149PT cells; experiment: cells; type: cell-based, human; conditions: for activity / IC50 as compared with the wt iPep624: Cell Titer Glo
Excerpt: The EN1-iPeps and iPep controls were first tested in SUM149PT cells carrying high EN1 expression. Cells were first treated with a full-length 29-mer peptide (iPep624) comprising the N-terminal, less conserved amino acid sequences, the hexamotif, and the C-terminal tail. As a control, the inventors generated the iPep624ΔHEX in which the hexamotif was mutated from the wild type (wt) WPAWVY (SEQ ID NO: 13) to the GAAGAG (SEQ ID NO: 15) sequence. These mutations were expected to dramatically abolish the activity of the peptide. Both peptides were included in the culture medium of the basal cancer cells in increasing (0-100 μM) concentrations and incubated for 8 hours at 37° C. Treated cells were first analyzed using the Cell Titer Glo assay, which monitors metabolic viability. […] This calculated value of IC50 is in the range of concentrations observed with other peptides delivered with CPPs.
(§1) All peptides were synthetized at the UNC High-Throughput Peptide Synthesis and Array Facility at UNC. Taxol, Rotenone and Halofuginone (Sigma-Aldrich, St Louis, Mo.) were dissolved in DMSO. A total of […] or 1×10^3 breast cells for peptide and drug treatment respectively, were seeded in 96-well plates. Cells were exposed for 8 hours to the peptide and 48 to 72 hours for drug treatment. The cell viability after peptide/drug treatment was assayed with the Cell Titer Glo (CTG) assay (Promega, Madison, Wis., USA).

[2] = tested on: SUM149PT cells overexpressing the EN1 cDNA (SUM149PT-EN1); experiment: Cell Titer Glo cell viability assay in SUM149PT cells overexpressing the EN1 cDNA; type: cell-based, human; conditions: Homo sapiens
Experimental: (§2) In the neural system it has been proposed that EN1 protects neurons from mitochondrial complex I insults. Likewise, the inventors investigated whether EN1 could play a similar role in the basal-like breast cancer cell lines. The EN1 cDNA was overexpressed in SUM149PT cells using a lentiviral vector, and the transduced cells were treated with increasing concentrations of rotenone, a mitochondrial complex I toxin, and taxol, a […].
(§3) Plasmids expressing the EN1 cDNA (Genecopoeia, vector EX-T1021-Lv07) or EN1 shRNAs (Open Biosystems, pLKO-EN1) were transfected with Gagpol-, VSVG-, and RSV-REV-coding plasmids in HEK 293T cells using Lipofectamine and Plus Reagent cationic lipids (Invitrogen, Carlsbad, Calif.) and transduction of breast cells was performed as described in Beltran, A. S. et al. Breast Cancer Res 13, R94 (2011).
as §1

[3] = tested on: SUM149PT control (EGFP) transduced cells (SUM149PT-Control); experiment: Cell Titer Glo cell viability assay in control transduced SUM149PT cells; type: cell-based; conditions: Homo sapiens
Experimental: as §2, §3, §1

[4] = tested on: panel of breast cancer cell lines; experiment: Cell Titer Glo cell viability assay, whole panel of breast cancer cell lines; type: cell-based; conditions: maximum tested concentrations (100 μM), 8 hours
Experimental: To test the specificity of the EN1-iPep in cell lines expressing EN1, the inventors delivered the iPeps into a panel of breast cancer cell lines expressing different amounts of EN1.
as §1

[5] = Homo sapiens, SUM149PT, 48 hours drug and 8 hours 500 nM iPep682, read-out: IC50 of drug with iPep682
[6] = Homo sapiens, SUM149PT, 48 hours of treatment, read-out: IC50 of drug alone
[7] = SUM149PT, drug treatment 72 hours, read-out: IC50 (cell viability), EN1 cDNA transduced cells
[8] = SUM149PT, drug treatment 72 hours, read-out: IC50 (cell viability), control transduced cells

O=c1[nH]cc(F)c(=O)[nH]1 [5-FU, 5-Fluorouracil, reference compound]
IC50 [1, 5]: 29.5 µM | IC50 [1, 6]: 610 µM

O=C(CC1NCCCC1O)Cn1cnc2cc(Br)c(Cl)cc2c1=O (centres unmarked) [halofuginone]
breast cancer cell death ([1]; SUM149PT, single agent): induced very potent breast cancer cell death | IC50 ([2]; SUM149PT-EN1 cells, 500 nM iPep, 48 hours, read-out: IC50 of halofuginone in combination with iPep624): 0.00049 µM | IC50 ([3]; SUM149PT-Control cells, 500 nM iPep, 48 hours, read-out: IC50 of halofuginone in combination with iPep624): 0.041 nM

C=C(C)[C@H]1Cc2c(ccc3c2O[C@@H]2COc4cc(OC)c(OC)cc4[C@@H]2C3=O)O1 [rotenone]
IC50 [2, 7]: 19.6 µM | IC50 [3, 8]: 1080 nM

CC(=O)O[C@H]1C(=O)[C@@]2(C)[C@H]([C@H](OC(=O)c3ccccc3)[C@]3(O)C[C@H](OC(=O)[C@H](O)[C@@H](NC(=O)c4ccccc4)c4ccccc4)C(C)=C1C3(C)C)[C@]1(OC(C)=O)CO[C@@H]1C[C@@H]2O [taxol, reference compound]
IC50 [1, 5]: 0.049 µM | IC50 [1, 6]: 7.6 µM | IC50 [2, 7]: 47.8 µM | IC50 [3, 8]: 7240 nM

KKKRKVPLVWPAWVYCTRYSDRPS [iPep682]
IC50 ([1]; 8 h): 12.5 µM

KKKRKVTDSQQPLVAPAWVYCTRYSDRPS (SEQ ID NO: 20) (engineered from homo sapiens) [iPep624W1ΔA, first tryptophan mutated to alanine]
activity / IC50 as compared with the wt iPep624 ([1]; SUM149PT): retained activity but significantly increased the IC50

KKKRKVTDSQQPLVGAAGAGCTRYSDRPS (SEQ ID NO: 18) (engineered from homo sapiens) [iPep624ΔHEX]
cell viability of any of the breast cancer cell lines [4]: did not significantly affect cell viability | cell viability ([1]; SUM149PT, 0-100 μM peptide, 8 hours): did not show significant changes in cell viability

KKKRKVTDSQQPLVWPAAVYCTRYSDRPS (SEQ ID NO: 19) (engineered from homo sapiens) [iPep624W2ΔA, second tryptophan mutated to alanine]
activity / IC50 as compared with the wt iPep624 ([1]; SUM149PT): retained activity but significantly increased the IC50

KKKRKVWPAWVYCTRYSDR (SEQ ID NO: 22) (homo sapiens) [iPep697, peptide lacking all the N-terminal residues upstream of the hexamotif]
activity / IC50 as compared with the wt iPep624 ([1]; SUM149PT): less active
